Each structure is given as a SMILES string.

As for `O=S(=O)(NCC(O)(Cn1cncn1)c1ccc(Cl)cc1Cl)c1cccs1` (stereo unspecified), the melting point (usually the temperature, or range, at which the solid turns liquid) fell in the range of 169 to 180 °C.
The value for `CC(=NNC(=O)c1cccc(C)c1)c1cc(Cl)cc(Cl)c1O` was 221 to 223 °C; that for `CN(C)C(=O)Nc1c(C(=O)c2occc2CO)[nH]c2cc(Cl)ccc12` was 238 °C; that for `CCOC(=O)Cn1c(=O)c(=O)[nH]c2cc(C(F)(F)F)c(-n3ccc(C=O)c3)cc21` was 236 to 237 °C.
With `CCOC(=O)c1cn(Cc2ccccc2)nc1OCc1ccc(OCc2nc(-c3ccco3)oc2C)c(OC)c1` the figure was 117 to 118 °C; with `CC(C#N)(Sc1nc2ccccc2s1)c1ccc(C(=O)c2cccs2)cc1` (stereo unspecified), 104 to 107 °C; with `O=C1CCCc2oc(-c3ccccc3)cc21`, 132 to 134 °C.
The value for `CCOC(=O)c1cc2c(cn1)[nH]c1c(Br)cc([N+](=O)[O-])cc12` was 291 to 292 °C.
`Cn1nc(-c2ccc3c(c2)CCNCC3)ccc1=O` returned a melting point of 183 to 185 °C.
The value for `COc1ccc(-c2c(C(C)=O)c(C)nc3cc(OC)c(OC)cc23)cc1OC` was 210 to 211 °C; that for `CN1C(=O)C2CCCN2C(=O)c2ccccc21` (stereo unspecified) was 124 to 126 °C.
For the compound `O=C1[C@H]2CCC[C@H]2N(C(=O)CN2CCN(c3ccccc3)CC2)c2ccccc2N1Cc1ccccc1` (relative stereo), the melting point is 164 to 165 °C.
With `C#CC(=O)c1cc(C(C)(C)C)c(O)c(C(C)(C)C)c1` the figure was 100 to 101 °C; with `COc1ncnc(-c2cc([N+](=O)[O-])c(F)cc2F)c1Cl`, 84 to 88 °C; with `CN1[C@H]2CC[C@@H]1[C@@H](CO)[C@@H](c1ccc(F)cc1)C2`, 79 to 80 °C.
With `Cc1oc(-c2ccccc2)nc1CCOc1ccc(C(=O)O)c(O)c1`, the melting point was in the range of 192 to 194 °C.
With `COc1ccc(Nc2ccnc(F)c2)cc1` the figure was 150 °C; with `COC1CN(c2ccc([N+](=O)[O-])cc2F)C1`, 57.5 to 58 °C.
With `O=C1CCCc2cc(OCc3cncnc3)ccc21` the figure was 146 to 147 °C.
The value for `COc1cccc(NC(=S)NC(NC(=O)c2ccc(C)cc2)C(F)(F)F)c1` (stereo unspecified) was 206 to 208 °C.
The compound `CCOC(=O)c1cccc(-c2nc(=O)c3ccccc3s2)n1` displayed a melting point of 170 to 172 °C.
Turning to `N#Cc1ccc(CNC(=O)Cc2ccc(O)cc2)cc1`, the melting point fell in the range of 176 to 178 °C.
The value for `CC(=O)C(=NO)C(N)=O` was 96 to 97 °C.
Compound `Cc1ccccc1-c1cc(=O)c2cc(O)ccc2o1` gave a melting point of 180 °C.
The value for `CCC(=O)N(C)N1CC(C)(C)C(=O)c2ccc(S(=O)(=O)c3ccccc3)cc21` was 153 to 155 °C; that for `Cc1cc(-c2noc(N(C)C)n2)ccc1-c1ccc(C(=O)N2CCCc3cc4c(cc32)C2(CCN(C)CC2)CO4)cc1` was 118 to 120 °C.
With `C=CCNc1nc(NCCOC)nc2c(C)csc12` the figure was 87 to 88 °C.
The value for `N#Cc1ccc(-c2ccc3c(c2)C2(CCCCC2)C(=O)N3)cc1F` was 258 to 260 °C; that for `CN1C[C@H]2c3ccccc3[C@H](c3ccccc3)CN2C(=O)C1=O` (relative stereo) was 193 to 194 °C; that for `CCn1c(CO)nc(C(C)C)c1Sc1cccc(Cl)c1` was 99 to 100 °C.
As for `CC(C)(C)C(=O)NC(=O)N1CC1C#N` (stereo unspecified), the melting point lay in the range of 136 to 138 °C.
With `CCOC(=O)/C(=N\OC12CC3CC(CC(C3)C1)C2)c1csc(N)n1` the figure was 152 to 153 °C.
As for `CCOC(=O)C(=CNC(C)(C)C)C(=O)c1cc(F)c(Cl)cc1Cl`, the melting point worked out at 87 °C.
With `Cc1cccc(C)c1CCCN1C(=O)c2ccccc2C1=O` the figure was 92 to 93.5 °C; with `CC(C)COc1cc(C(=O)O)cc(N)c1C(=O)c1ccccc1`, 192 to 196 °C.
The value for `Cc1nc2c3c(c(C(=O)N4CCCC4)cc2n1C)CCC1(Cc2ccccc2C1)N3` was 263 to 264 °C; that for `CC(=O)Nc1ccn([C@@H]2C[C@H](OC(C)=O)[C@@H](O)[C@H]2O)c(=O)n1` (racemic) was 98 to 100 °C.
With `CC(C(=O)O)c1ccc2oc(Nc3ccc(Cl)cc3)nc2c1` (stereo unspecified) the figure was 206 to 208 °C; with `C=CCNC(=NC#N)NCC=C`, 66.5 to 67 °C.
In the case of `Cn1cc(C=O)c2ccc3oc4ccccc4c3c21`, the melting point lay within 163 to 165 °C.
The value for `CCN(CC#N)S(=O)(=O)Cc1cccc(C(F)(F)F)c1` was 67 to 68.5 °C; that for `O=C(O)c1cnc2cc(C(F)(F)F)ccc2c1Cl` was 310 °C; that for `CC1(Sc2ccccc2)C(=O)C2CC=CC21` (stereo unspecified) was 49 °C.
The value for `CC(C)(CS(=O)(=O)c1ccc(Oc2ccc(Cl)cn2)cc1)C(=O)NO` was 116 to 117 °C; that for `NC(=O)CCN1CCCCC1` was 105 to 107 °C.
`Nc1ccn(C2CCCO2)c(=O)n1` (stereo unspecified) came in with a melting point of 193 to 195 °C.
The value for `CN(C(N)=O)C1CCCc2sccc21` (stereo unspecified) was 152 to 154 °C; that for `Cc1cc(-n2ccnc2)c2cccc(OCc3c(Cl)ccc(S(=O)(=O)N4CCCC4C(=O)NCC4CCN(C(=O)CC(=O)OC(C)(C)C)CC4)c3Cl)c2n1` (stereo unspecified) was 101 °C; that for `C=CCc1c(O)ccc2ccc(OCC(=O)OC)cc12` was 128 to 130 °C.
With `CC1=C(C(=O)O)C(c2cccc(Cl)c2Cl)C(c2nnco2)=C(C)N1` (stereo unspecified) the figure was 187 to 190 °C.
The value for `CC1(C)COC(=O)N1c1nc(-c2sc(C#N)cc2Br)cs1` was 230 to 234 °C; that for `COCCN1CSC(=Cc2cc(C(C)(C)C)c(O)c(C(C)(C)C)c2)C1=O` was 147 to 149 °C; that for `O=C(O)CCNC(=O)[C@H](Cc1ccccc1)OP(=O)(O)CCCCc1ccccc1` was 78.5 to 80 °C.
For the compound `Cc1ccc(C)c(C(=O)CC#N)c1`, the melting point fell in the range of 75 to 76 °C.
The value for `CC1(CCC(N)=O)C(=O)CCC1=O` was 159 to 162 °C; that for `COc1cc(/C=C2/C(=O)N(C)C(=O)/C2=C/c2ccccc2)cc(OC)c1OC` was 131 to 133 °C; that for `COc1cc(-c2ccc(N3CCCN(c4ccc(-c5cc(OC)c(O)c(OC)c5)cn4)CC3)nc2)cc(OC)c1O` was 200 to 202 °C.
The value for `COc1ccc(-c2ccc(C)c(OCC(OC)OC)c2)cc1` was 39 to 40 °C; that for `CCCCC(O)c1ccc2cc(O)ccc2c1` (stereo unspecified) was 109 to 111 °C.
On to `C[C@H](c1ccccc1CCn1cncn1)N(c1cc(F)ccc1F)S(=O)(=O)c1ccc(Cl)cc1`, for which the melting point fell in the range of 116 to 118 °C.
With `C1=CC(c2ccccc2)Nc2ccccc21` (stereo unspecified) the figure was 75 °C; with `CCc1cc(CO)c(OC)nc1C`, 53 to 55 °C.
With `O=C1CC(c2ccccc2)c2cc(Br)ccc2O1` (stereo unspecified) the figure was 117 °C.
With `Cc1cc(-c2c(Cl)ccc(C(=O)O)c2Cl)on1` the figure was 154 to 156 °C.
Compound `Cc1ccc([N+](=O)[O-])cc1Nc1ncc(-c2cccnc2)o1` registered a melting point of 252 °C.
The value for `COc1cc(C(=O)NC2CCN(C(=O)CN(C)C)CC2)ccc1Nc1ncc2c(n1)N(C1CCCCC1)CC(F)(F)C(=O)N2C` was 190 to 191 °C; that for `CC(C)n1cc(-c2ccc(NS(=O)(=O)c3ccccc3)cc2)c2c(N)ncnc21` was 238 to 240 °C.
`O=C(c1ccc(Oc2ccc(Oc3ccc(C(=O)C(Cl)(Cl)Cl)cc3)cc2)cc1)C(Cl)(Cl)Cl`: the melting point lay within 215 to 217 °C.
With `CCC(CC)[C@@H](CO)NS(=O)(=O)c1ccc(Cl)s1`, the melting point was 115 to 118 °C.
The value for `Cc1[nH]c2ccc(S(=O)(=O)c3ccccc3)cc2c1CCNC(=O)OC(C)(C)C` was 210 to 213 °C.
With `COC(=O)C(Cc1cc(C(C)(C)C)c(O)c(C)c1C)C(=O)OC` the figure was 140 to 143 °C; with `COC(=O)CCS(=O)(=O)c1ccc(C=C(C)c2ccc3c(c2)C(C)(C)CCC3(C)C)cc1`, 118 to 120 °C.
The value for `CCc1ncnc(N[C@H]2CS[C@@H](c3ccc(C)cc3)SC2)c1Cl` was 138 to 139 °C; that for `Cc1nn(-c2ccc(F)cc2)cc1C(=O)Nc1ccc(OCC(C)C)c(C#N)c1` was 179 to 180 °C.
On to `CC(C)=CCCOc1c(-c2ccc(S(C)(=O)=O)cc2)cnn(-c2ccc(F)cc2)c1=O`, for which the melting point is 111 to 114 °C.
The value for `COc1cc(N=C=S)nc(OC)c1` was 85 to 86 °C; that for `CC(C)C(C#N)NC(=O)c1snc(Cl)c1Cl` (stereo unspecified) was 120 to 121 °C.
Consider `CON1CCC(C2NC(=O)C(c3c(C)cc(C)cc3C)=C2O)CC1` (stereo unspecified), for which the melting point was 206 to 209 °C.
With `CCOC(=O)C1CCC2(C)C(=CC(=O)C3C4CCC(=O)C4(C)CCC32)C1` (stereo unspecified) the figure was 187 to 188 °C; with `CC(C)S(=O)(=O)C(C#N)=CC=CN(C)C`, 102 to 104 °C.
`CCN(CCOc1cccnc1[N+](=O)[O-])CCN1C(=O)c2ccccc2C1=O` had a melting point of 124 to 126 °C.
With `CC(=O)OC1(C(C)=O)C(C)CC2C3CC(C)C4=CC(=O)C=CC4(C)C3(Br)C(O)CC21C` (stereo unspecified) the figure was 184 to 185 °C; with `CN1Cc2c(/C=C\Cl)ncn2-c2ccccc2C1=O`, 197 to 199 °C.
The value for `O=C1NC(=O)c2c1c(-c1cc([N+](=O)[O-])ccc1O)cc1[nH]c3ccc(O)cc3c21` was more than 330 °C; that for `CCC(C)C(C)C(=O)Nc1ccc2c(C)cn3c(=O)c(C(=O)NCCN4CCN(C(c5ccccc5)c5ccccc5)CC4)cnc3c2c1` (stereo unspecified) was 226 to 230 °C.
`CCCc1ccc2c(c1)C(=O)N(c1ccc(C(C)C(=O)OC(C)(C)C)cc1)C2` (stereo unspecified) came in with a melting point of 110 to 115 °C.
Take `CC(=O)N1CCN(c2nccc(Oc3ccc(NC(=O)c4cc(F)cc(N5CCCCC5)c4)c4ccccc34)n2)CC1`: the melting point was in the range of 102 to 104 °C.
The value for `Nc1cc2c(cc1Oc1ccccc1)C(=O)CCO2` was 154 to 155 °C.
The value for `CCCN(CCC)CC1CCCCN1CCNC(=O)N1c2ccccc2NC(=O)c2c1ccn2C` (stereo unspecified) was 153 to 155 °C.
With `Cn1cc2c(CO)c(Br)ccc2n1` the figure was 123 to 125 °C.
In turn, `NCCCCCCCCCCCCCCCCCCCCCC(=O)O` gave a melting point of 166 to 168 °C.

These data come from a melting point compilation (Tetko et al.; mined from patent text by program, amines drawn as free bases though some values may be those of a salt).
